pIC50: −log10 of the molar value. Like-named read-outs stand apart in the source and are kept apart here.
What was measured:
[1] = test system: male CD IGS (Sprague Dawley derived) rats; experiment: Dose range for cholinergic effects / max tolerated dose; settings: for TIMTD/ MED: ratio of max tolerated dose to hypothermia MED, rats s.c.
Protocol: The dose range and time course for cholinergic effects of the compounds of the invention was determined as described below. • Subjects: Two hundred eight male CD IGS (Sprague Dawley derived) rats were received at 126-150 grams and maintained four per cage on a regular light/dark cycle (lights on 0600-1800) with ad libitum food and water for about 1 week before commencement of experimentation. • Apparatus: Injections were made subcutaneously (s.c.) with a 25-gauge needle on a 1-mL tuberculin syringe. Observations were made in a 5½×10-inch polycarbonate rat housing cage. Temperature was taken with a rat rectal probe on a Model BAT-12 electronic thermometer. • Compound Preparation: Test compounds were dissolved for example, in 0.9% saline. […] Injection volumes were 1 mL/kg, if the test compound was sufficiently soluble. If less soluble, maximum injection volume were 5 mL/kg.
Test Compounds were dosed at 1, 3, 10, 30, and 100 mg/kg • Procedure: The rats were brought to the test room in the home cage. Baseline temperatures were measured just before injection. After injection s.c., the rat was placed in the observation cage. At 0.5, 1, 2, and 4 hours after injection, it was observed briefly for gross signs; salivation was scored as absent, clearly present, or copious; and rectal temperature was taken. In observation for gross signs, special attention was paid to fasciculation (muscle twitch), tremor/ataxia, and abnormal gait. The experiment was designed to allow assessment of one rat per time point per minute. Salivation score and temperature were determined within this constraint, but only the most salient of gross signs were noted. After the 4-hour observation point, or sooner if signs of distress were observed, the rat was euthanized by CO2 inhalation. • Data Analysis: Gross signs, salivation score, and temperature at each time point were tabulated for inspection. This is a combination of within-subject design for control and between-subjects design for dose effect. That is, the effect of the compound was measured against the reading taken immediately before injection, and the difference between doses of the compound was measured between groups of three rats.

BuChE = BuChE (Homo sapiens, UniProt P06276); experiment: In vitro screening assay, BuChE inhibition; assay type: biochemical
BuChE, sequence (P06276 29-602): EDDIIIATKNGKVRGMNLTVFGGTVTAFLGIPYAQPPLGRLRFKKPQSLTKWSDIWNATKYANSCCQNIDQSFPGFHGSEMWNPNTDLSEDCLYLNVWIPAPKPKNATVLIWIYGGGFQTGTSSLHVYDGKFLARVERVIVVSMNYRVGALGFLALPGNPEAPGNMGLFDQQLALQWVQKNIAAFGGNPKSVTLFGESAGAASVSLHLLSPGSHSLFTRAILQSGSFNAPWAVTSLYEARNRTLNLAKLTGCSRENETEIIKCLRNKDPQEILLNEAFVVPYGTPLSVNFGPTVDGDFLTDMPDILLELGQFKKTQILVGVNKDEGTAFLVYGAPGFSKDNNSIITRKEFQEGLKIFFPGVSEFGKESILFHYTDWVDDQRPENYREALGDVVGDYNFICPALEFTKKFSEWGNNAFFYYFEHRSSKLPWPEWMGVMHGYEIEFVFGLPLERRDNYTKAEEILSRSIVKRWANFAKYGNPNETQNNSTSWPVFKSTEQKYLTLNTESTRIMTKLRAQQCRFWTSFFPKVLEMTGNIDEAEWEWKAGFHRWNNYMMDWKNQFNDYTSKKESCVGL
From the text: An in vitro screening assay with various conjugates was completed according to the methods described in Ellman G L et al., Biochem Pharmacol., 7:88-95 (1961) and in Nadarajah B, J. Anal. Toxicol., 16:192-193 (1992), both of which are herein incorporated by reference in their entireties. The assay method was completed according to the following: […]

[2] = test system: male CD IGS (Sprague Dawley derived) rats; experiment: Measurement of hypothermia (marker of CNS penetration for AChE inhibitors); assay type: in vivo; settings: Rattus norvegicus, sc, read-out: Hypothermia MED (mg/kg)
Protocol: The induction of hypothermia was determined for compounds of the invention according to the methods described in Freedman, et al., European Journal of Pharmacology, 187 (1990), 193-199, which is incorporated by reference herein. Hypothermia is a marker of CNS penetration for AChE inhibitors.
The dose range and time course for cholinergic effects of the compounds of the invention was determined as described below. • Subjects: Two hundred eight male CD IGS (Sprague Dawley derived) rats were received at 126-150 grams and maintained four per cage on a regular light/dark cycle (lights on 0600-1800) with ad libitum food and water for about 1 week before commencement of experimentation. • Apparatus: Injections were made subcutaneously (s.c.) with a 25-gauge needle on a 1-mL tuberculin syringe. Observations were made in a 5½×10-inch polycarbonate rat housing cage. […]
Test Compounds were dosed at 1, 3, 10, 30, and 100 mg/kg • Procedure: The rats were brought to the test room in the home cage. Baseline temperatures were measured just before injection. […] At 0.5, 1, 2, and 4 hours after injection, it was observed briefly for gross signs; salivation was scored as absent, clearly present, or copious; and rectal temperature was taken. […] Salivation score and temperature were determined within this constraint, but only the most salient of gross signs were noted. […]

rats = experiment: Methamphetamine drug discrimination test
[3] = target: T1, human recombinant acetylcholinesterase (Homo sapiens, UniProt P22303); experiment: biochemical; settings: human recombinant AChE, 25° C., 30 minutes preincubation, Dixon plot
T1 construct: purchased Sigma Chemical Co (St. Louis, Mo.) C1682
T1 sequence (P22303 32-614): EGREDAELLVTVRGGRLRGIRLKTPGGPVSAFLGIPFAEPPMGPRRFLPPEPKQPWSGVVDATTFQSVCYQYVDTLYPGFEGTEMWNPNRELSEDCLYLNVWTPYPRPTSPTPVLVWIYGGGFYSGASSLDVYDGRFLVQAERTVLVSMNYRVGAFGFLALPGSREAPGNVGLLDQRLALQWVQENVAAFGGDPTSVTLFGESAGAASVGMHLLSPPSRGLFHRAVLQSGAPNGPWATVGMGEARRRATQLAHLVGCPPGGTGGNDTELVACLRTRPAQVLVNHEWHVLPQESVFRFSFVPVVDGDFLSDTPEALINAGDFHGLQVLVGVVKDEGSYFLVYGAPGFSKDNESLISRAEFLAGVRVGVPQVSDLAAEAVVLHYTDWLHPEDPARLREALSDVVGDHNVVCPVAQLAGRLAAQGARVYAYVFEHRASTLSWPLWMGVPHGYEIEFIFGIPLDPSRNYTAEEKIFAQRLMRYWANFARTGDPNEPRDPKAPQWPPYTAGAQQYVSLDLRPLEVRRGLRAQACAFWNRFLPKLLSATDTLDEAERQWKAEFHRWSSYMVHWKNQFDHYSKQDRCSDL

[4] = target: T2, AChE (Human recombinant HEK-293 cells) (Homo sapiens, UniProt P22303); assay type: biochemical
T2 construct: host or cells: HEK-293 cells (expression host as printed)
T2 sequence (P22303 32-614): as above

SMILES	TIMTD/ MED [1]	BuChE I (%) 10 μM (BuChE; 10 μM)	further results
C[C@@H](c1cccc(OC(=O)N[C@H]2C[C@@H]2c2ccccc2)c1)N(C)C (stereo in doubt) [Compound 2, S-riva-tranylcypromine]	3	67%	–
CCN(C)C(=O)Oc1cccc([C@H](C)N(C)C)c1 [Compound 1, S-rivastigmine, reference compound]	–	–	BuChE I (%) 10 μM (BuChE): 100%
C[C@@H](c1cccc(OC(=O)N2CCN(C3=Nc4ccccc4Oc4ccc(Cl)cc43)CC2)c1)N(C)C [Compound 3, S-riva-amoxapine]	≧10	6%	–
C[C@@H](c1cccc(OC(=O)N(C)CCCN2c3ccccc3CCc3ccccc32)c1)N(C)C [Compound 4A, S-riva-desipramine]	≧30	60%	–
Cc1ccccc1O[C@H](CCN(C)C(=O)Oc1cccc([C@H](C)N(C)C)c1)c1ccccc1 [Compound 5, S-riva-atomoxetine]	–	14%	–
C[C@@H](c1cccc(OC(=O)N(C)CCC=C2c3ccccc3CCc3ccccc32)c1)N(C)C [Compound 5A, S-riva-nortriptyline]	≧100	55%	Max Tolerated Dose ([1]; rats, s.c., test doses given in mg/kg): ≧100; minimal effective dose [2]: ≤ 1 mg/kg
C[C@@H](c1cccc(OC(=O)N(C)CCCC2c3ccccc3C=Cc3ccccc32)c1)N(C)C [Compound 6A, S-riva-protriptyline]	>1	53%	–
C[C@H](Cc1ccccc1)N(C)C(=O)Oc1cccc([C@H](C)N(C)C)c1 [Compound 7, S-riva-l-methamphetamine]	–	–	generalization to methamphetamine (lever selection) (rats; rats trained to discriminate methamphetamine from vehicle, compound 7 at 0.01-3.2 mg/kg i.p., FIG. 1 top): lack of stimulus generalization to methamphetamine; behavioral disruption (rats; rats, 1.0 mg/kg of compound 7, FIG. 2 lower): without behavioral disruption; rate of responding (rats; rats, compound 7 at 0.01-3.2 mg/kg i.p., FIG. 1 lower): markedly decreased reponse rates
C[C@@H](c1cccc(OC(=O)N(C)CCC(Oc2ccc(C(F)(F)F)cc2)c2ccccc2)c1)N(C)C (stereo partly shown) [Compound 7A, S-riva-fluoxetine]	≧30	15%	–
COCCCC/C(=N\OCCNC(=O)Oc1cccc([C@H](C)N(C)C)c1)c1ccc(C(F)(F)F)cc1 [Compound 8A, S-riva-fluvoxamine]	–	6%	–
C[C@@H](c1cccc(OC(=O)N2CC[C@@H](c3ccc(F)cc3)[C@H](COc3ccc4c(c3)OCO4)C2)c1)N(C)C [Compound 9A, S-riva-paroxetine]	–	4%	–
C[C@@H](c1cccc(OC(=O)N(C)CC[C@H](Oc2cccc3ccccc23)c2cccs2)c1)N(C)C [Compound 10A, S-riva-duloxetine]	–	36%	–
C#CCN(C(=O)Oc1cccc([C@H](C)N(C)C)c1)[C@H](C)Cc1ccccc1 [Compound 11, S-riva-desmethylselegiline]	–	17%	–
C[C@@H](c1cccc(OC(=O)N(C)[C@@H](C)Cc2ccccc2)c1)N(C)C [Compound 13, S-riva-d-methamphetamine]	–	–	pIC50 [3]: 5.26
COc1ccccc1CC(C)N(C)C(=O)Oc1cccc([C@H](C)N(C)C)c1 (stereo partly shown) [Compound 15, S-riva-methoxyphenamine]	–	30%	–
CC(CC1CCCCC1)N(C)C(=O)Oc1cccc([C@H](C)N(C)C)c1 (stereo partly shown) [Compound 16, S-riva-propylhexedrine]	≧10	–	–
C#CCN(C(=O)Oc1cccc([C@@H](C)N(C)C)c1)[C@H](C)Cc1ccccc1 [Compound 17, R-riva-desmethylselegiline]	–	12%	–
C#CCN(C(=O)Oc1ccc2c(c1)[C@]1(C)CCN(C)[C@@H]1N2C)[C@H](C)Cc1ccccc1 [Compound 18, Physo-desmethylselegiline]	–	8%	–
C[C@@H](Cc1ccccc1)NC(=O)Oc1cccc([C@H](C)N(C)C)c1 [Compound 20, S-riva-d-amphetamine]	–	–	pIC50 [3]: 6.35
CN1CC[C@@]2(C)c3cc(OC(=O)Nc4ccccc4)ccc3N(C)[C@@H]12 [Phenserine, reference compound]	–	–	BuChEI (%) 1 μM [4]: 93%; BuChE I (%) 10 μM (BuChE): 42%

From patent US20110251175A1, “Stigmine Conjugates for Substance Use Disorders” (priority 2008, published 2011)
